Laboratory results as given in patent US8241872B2, “Microorganism producing cyclic compound” (Astellas Pharma Inc., priority 2008, dated 2012).
Non-standard residues stand in square brackets, D forms with d. Residues, ends and D or L forms follow the SMILES beside them. ξ: configuration not given here. ξOrn(N(OH)Ac) = CC(=O)N(O)CCCC(N)C(=O)O

Experiments:
Experiment in all cases: Antifungal activity, broth microdilution method
Assay type in all cases: cell-based
[1] = tested on: Alternaria alternata AHU9258
Description: (§1) Antifungal activities for test fungi shown in Table 15 was determined by a broth microdilution method (Hikaru Kume and Toshikazu Yamazaki, Clinical Microbiology, Vol. 21, No. 5, pp. 573-580, 1994).

[2] = tested on: Aspergillus niger ATCC6275
Description: as §1

Candida glabrata FP1944 = tested on: Candida glabrata FP1944
Description: as §1

[3] = tested on: Trichophyton rubrum FP596
Description: as §1

Fusarium solani FP1930 = tested on: Fusarium solani FP1930
Description: as §1

[4] = tested on: Aspergillus terreus SR0174
Description: as §1

[5] = tested on: Cryptococcus neoformans FP1739
Description: as §1

[6] = tested on: Pseudallescheria boydii FP1987
Description: as §1

[7] = tested on: Aspergillus flavus ATCC9643
Description: as §1

Candida krusei FP1979 = tested on: Candida krusei FP1979
Description: as §1

Rhizopus oryzae FP1988 = tested on: Rhizopus oryzae FP1988
Description: as §1

[8] = tested on: Candida parapsilosis FP1980
Description: as §1

[9] = tested on: Candida guilliermondii FP2086
Description: as §1

[10] = tested on: Aspergillus fumigatus FP1305
Description: as §1

[11] = tested on: Trichophyton mentagrophytes FP2103
Description: as §1

[12] = tested on: Trichosporon asahi FP2044
Description: as §1

In the case of `CC(=O)N(O)CCCC1NC(=O)C(CCCN(O)C(C)=O)NC(=O)C(Cc2ccccc2)NC(=O)C(CC(C)C)NC(=O)C(CC(N)=O)NC(=O)C(CCCN(O)C(C)=O)NC1=O` (stereo not shown) [compound B] (cyclo([ξOrn(N(OH)Ac)][ξOrn(N(OH)Ac)][ξOrn(N(OH)Ac)]NLF); configuration not given here), the “MEC (minimum effective concentration)” value [1] was 0.1 µg/mL, the “MEC (minimum effective concentration)” value [2] was 0.78 µg/mL and the “MEC (minimum effective concentration)” value (Candida glabrata FP1944) was 0.31 µg/mL. The “MEC (minimum effective concentration)” value [3] was 1.25 µg/mL, the “MEC (minimum effective concentration)” value (Fusarium solani FP1930) was 0.2 µg/mL and the “MEC (minimum effective concentration)” value [4] was 0.31 µg/mL. The “MEC (minimum effective concentration)” value [5] was 0.2 µg/mL, the “MEC (minimum effective concentration)” value [6] was 0.2 µg/mL and the “MEC (minimum effective concentration)” value [7] was 0.2 µg/mL. For the same compound, the “MEC (minimum effective concentration)” value (Candida krusei FP1979) was 0.31 µg/mL, the “MEC (minimum effective concentration)” value (Rhizopus oryzae FP1988) was 25 µg/mL and the “MEC (minimum effective concentration)” value [8] was 0.39 µg/mL. For the same compound, the “MEC (minimum effective concentration)” value [9] was 0.31 µg/mL, the “MEC (minimum effective concentration)” value [10] was 0.31 µg/mL and the “MEC (minimum effective concentration)” value [11] was 0.78 µg/mL. For the same compound, the “MEC (minimum effective concentration)” value [12] was 0.2 µg/mL.
